# In patent US12188086B2, “Nucleotide analogues and use thereof for nucleic acid sequencing and analysis preliminary class” (The Trustees of Columbia University in the City of New York, priority 2018, dated 2025):
# Assays:
# Thermo Sequenase = Thermo Sequenase (Thermus aquaticus, UniProt P19821, F272M/F667Y); conditions: read-out: concentration that produces the half maximum fluorescent intensity; 0.3 μM single fluorescein labeled self-primed template, 10 pH dCTP, ddCTP 0 to 10 μM
# Experimental: A. Varying concentrations of ddCTP (0 to 10 μM) were added to solutions containing Thermo Sequenase, 0.3 μM single fluorescein labeled self-primed template and 10 pH dCTP. […] B. The same experiments performed with the tagged ddCTP (0 to 5 μM) shown in FIG. 79 in the presence of the same template and 5 μM dCTP.
# Extension reactions were prepared with the primer, Thermo Sequenase, dCTP and various dilutions of ddCTP or tagged ddCTP. First, a series of SBE reactions were carried out with final ddCTP concentrations ranging from 0 to 10 μM at a concentration of dCTP of 10 μM and 0.3 pH of labeled primer. Under these conditions, the primer is extended by the incorporation of dCTP until it encounters ddCTP incorporation. […] Fluorescence intensity was measured on a SpectraMax3 Microplate Reader (Molecular Devices, LLC).
# [1] = test system: Therminator IX DNA polymerase; test: Single base extension reaction, checked by MALDI-TOF MS; format: biochemical; parameters: efficiency of primer strand extension: concentration or dose not given beside the values; conditions: for efficiency of primer strand extension: no primer peak is visible
# Experimental: A single base DNA extension reaction (SBE) was performed with 3′-O-SS (DTM)-dTTP-PEG4-Azo-Cy5, using a primer (5′-[…]-3′ [SEQ ID 1]) and a synthetic DNA template (5′-[…]-3′ [SEQ ID 2]) based on a portion of exon 8 of the human p53 gene as follows. The bold letters in the template represent the extension position for the primers. 2 μL of 10× concentrated buffer, 1 μL of primer, E8TT (MW: 5163, 100 μM), 3 μL of Exon 8 template (20 μM), 1 μL of nucleotide (3′-O-t-butyl-SS-dTTP-PEG4-Azo-Cy5, 432 μM), 1 μL of Therminator IX DNA Polymerase, T9 (10 U/λ) and 12 μL of dH2O were combined in a total volume of 20 μL. The reaction consisted of 38 cycles at 65° C. for 30 seconds and 45° C. for 30 seconds. Single base extension was confirmed by MALDI-TOF MS as indicated by the major peak at 6791.8 Da (calc'd, 6782.4 Da) in the spectrum.
# Synthesized 3′-O-t-butyl-SS-dATP-PEG4-Azo-Biotin was used to perform a single-base extension reaction. The primer E8AA-6084 (5′-[…]-3′ at 6084 Da), exon 8 template (see sequence above) and Therminator IX DNA polymerase (T9) were added along with the modified nucleotides. In the 3′-O-t-butyl-SS-dATP-PEG4-Azo-Biotin (A7) incorporation reaction, the primer was extended to 7327.4 Da (expected, 7326.3 Da). No primer peak was detected using MALDI TOF MS after 38 cycles of reaction.
# Extension reactions consisted of 3 μl template (60 μM), 1 μl primer (100 μM), 2 μl of one of the above ddNTP analogues (100 μM), 2 μl 10× Thermo Pol Buffer, 1 μl Therminator IX DNA polymerase (10 unit/μl) and 11 μl water. Extension was performed in a thermal cycler and consisted of 1 min denaturation at 65° C., followed by 38 cycles of 30 sec at 65° C., 30 sec at 45° C. and 30 sec at 65° C., with a final 3 min extension at 72° C., and storage at 4° C. Desalting was carried out using Oligo Clean & Concentrator (Zymo Research) according to the manufacturer's instructions prior to checking results of polymerase reaction by MALDI-TOF-MS.
# [2] = Compatibility test: stability of SS linker on sodium dithionite treatment (MALDI-TOF MS); format: physicochemical; conditions: 25 mM Na2S2O4 in PBS pH 7.4, 30 min at 37° C.
# Experimental: Disclosed herein are the results of a compatibility test was performed using 3′-O-SS-dATP-SS-Rox (cal: MW1344.36 Da, observed 1345.61) as model compound. 2 μl of 0.1 mM 3′-O-SS-dATP-SS-Rox was treated with 100 μL of freshly made 25 mM Na2S2O4 (in PBS buffer [pH 7.4]) and the mixture was kept shaking for 30 min at 37° C. Then desalination was carried out with a ZipTip, and the product was subjected to MALDI TOF MS measurement. […] The result proves that the disulfide linker is stable at much higher concentration of sodium dithionite and at longer reaction time than necessary to cleave the Azo linker.
# An additional compatibility test was conducted on 3′-SS-dC extended ssDNA. The single base extension experiment was carried out by adding 20 pmol Exon 8 template, 60 pmol primer (M.W. 5144), 2 mM MnCl2 and 2 U Therminator 9 polymerase in 20 μl 1×Pol buffer in each PCR reaction tube which were subject to PCR thermocycles (65° C. for 30″ 45° C. for 30″, 38 cycles). After completion of the incorporation, NaS2O4 solution was added to the reaction tube to a final concentration of 20 mM and incubated at room temperature for 40 min. Then the reaction mixture was treated with a Clean & Concentrator column to purify ssDNA. The resulting oligonucleotide was subject to MALDI-TOF MS measurement. […]
# [3] = Sodium dithionite cleavage of azo linker on single base extended primer (MALDI-TOF MS); format: physicochemical
# Experimental: The azo cleavage reaction was performed on single base extended primer (E8TT+3′-O-t-butyl-SS-dTMP-PEG4-Azo-Cy5, 6782.4 Da). A 1M stock solution of Na2S2O4 was prepared in 1×PBS buffer (pH 7.4). 1.25 μL Na2S2O4 solution was added to the extended primer solution (20 μL, 32 μM) along with 28.75 μL of 1×PBS buffer. […] Afterwards, reaction mixtures were purified with a ZipTip and concentrated using a Speed Vac. The size of the cleaved extended primer was characterized by MALDI-TOF MS as 6009.44 Da (calc'd: 6008.9 Da).
# Single base extended primers (6084ExAA+3′-O-t-butyl-SS-dAMP-PEG4-Azo-Biotin, 7327.4 Da) was treated with 25 mM sodium dithionite in 1×PBS buffer. […] The azo cleaved product reflects a molecular weight of 6951.1 Da which agrees with the expected value of 6952.3 Da. […]
# [4] = THP cleavage of SS linker / 3′ blocking group on extended primer (MALDI-TOF MS); format: physicochemical
# Experimental: Tris(hydroxypropyl)phosphine (THP) (1 μL, 1 mM) was added to the azo cleaved extended primer (9 μL, 15 μM) (E8TT+3′-O-t-butyl-SS-dTMP-PEG4-aniline, 6009.44 Da). […] After the spin column-based nucleic acid purification (ZymoPURE Oligo Clean & Concentrator), the product was confirmed by MALDI-TOF MS: 5881.4 Da (calc'd: 5874.9 Da). […]
# [5] = 25 mM sodium dithionite at 45° C. for 1 minute
# Thermo Sequenase, sequence (P19821 272-832 F272M/F667Y): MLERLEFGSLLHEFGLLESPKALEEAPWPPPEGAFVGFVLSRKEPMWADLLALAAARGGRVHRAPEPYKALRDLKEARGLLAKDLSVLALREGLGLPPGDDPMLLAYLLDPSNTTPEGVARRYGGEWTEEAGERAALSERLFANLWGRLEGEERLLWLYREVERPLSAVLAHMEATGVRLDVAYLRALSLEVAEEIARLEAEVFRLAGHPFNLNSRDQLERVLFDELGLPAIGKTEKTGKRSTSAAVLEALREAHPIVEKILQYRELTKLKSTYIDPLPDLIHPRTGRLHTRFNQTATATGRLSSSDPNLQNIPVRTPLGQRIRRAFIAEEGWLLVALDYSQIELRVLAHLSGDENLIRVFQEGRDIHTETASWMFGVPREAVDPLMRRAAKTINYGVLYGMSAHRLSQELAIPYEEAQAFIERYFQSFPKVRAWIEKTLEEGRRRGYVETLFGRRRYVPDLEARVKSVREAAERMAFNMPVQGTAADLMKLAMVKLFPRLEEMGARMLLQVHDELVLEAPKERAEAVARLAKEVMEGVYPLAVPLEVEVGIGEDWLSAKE
compound,measurement,setting,value
Nc1ccn([C@H]2CC[C@@H](COP(=O)(O)OP(=O)(O)OP(=O)(O)O)O2)c(=O)n1 [ddCTP],IC50,Thermo Sequenase,~500 nM
ddGTP-7-SS-Cy5,efficiency of primer strand extension,[1],~100%
3′-O-SS-dATP-SS-Rox,integrity in the presence of Na2S2O4,[2],no cleavage or degradation was observed
ddTTP-5-Azo-Cy5,efficiency of primer strand extension,[1],~100%
same,cleavage of azo linker on extended primer,[3]; [5],complete cleavage
ddCTP-5-SS-Biotin,efficiency of primer strand extension,[1],~100%
same,cleavage of SS linker on extended primer,[4]; THP,complete cleavage
3′-O-t-Butyl-SS(DTM)-dATP-PEG4-Azo-Biotin [3′-O-t-butyl-SS-dATP-PEG4-Azo-Biotin],efficiency of primer strand extension,[1],~100%
same,cleavage of azo linker on extended primer,"[3]; 25 mM sodium dithionite in 1×PBS, 37° C. for 10 min",can be cleaved efficiently
3′-O-t-Butyl-SS(DTM)-dTTP-PEG4-Azo-Cy5 [3′-O-t-butyl-SS-dTTP-PEG4-Azo-Cy5],incorporation rate,"[1]; 38 cycles at 65° C. for 30 seconds and 45° C. for 30 seconds, no primer peak observed",100%
same,cleavage of azo linker on extended primer,[3]; 25 mM sodium dithionite at 37° C. for 20 minutes,complete cleavage
same,removal of 3′ blocking group,[4]; 1 mM THP for 5 minutes at 65° C.,removed the blocking group with high efficiency
ddATP-7-Azo-Biotin,efficiency of primer strand extension,[1],~100%
same,cleavage of azo linker on extended primer,[3]; [5],complete cleavage
